The text below walks through data of patent US8580512B2, “Yeast-based methods of identifying nucleic acids and compounds for treating neurodegenerative diseases” (University of Alabama, priority 2008, dated 2013).

The test system of assay [1] is S. pombe cells. The assay is described as follows: Reversal of rotenone-induced proliferation inhibition. The class given is cell-based, Schizosaccharomyces pombe. How it is done:
Phosphatidylethanolamine (PE) deficiency results in a rotenone-sensitive phenotype that can be suppressed by ethanolamine. Log phase cultures were suspended at 10^7 cells/ml, serially diluted (1:10), and spotted (5 μl per spot) onto YES (Control) or YES containing 16 μM rotenone (+Rotenone).
Oxidative stress has been detected in the brains of deceased Parkinson's disease patients, and in rats exposed to rotenone as a model for Parkinson's disease.

Assay [2] relates to S. pombe cells. The assay is described as follows: DIC microscopy of cell morphology. Format: cell-based, Schizosaccharomyces pombe. To be noted: wild type, rotenone 6.4 μg/ml, 4 to 24 hrs. The text has this:
To determine whether rotenone induces abnormalities in S. pombe cell morphology, rotenone-treated and untreated S. pombe cells were compared by DIC microscopy.

Assay [3] has as its system S. pombe cells. The assay is described as follows: Dihydroethidium (DHE) staining for ROS. To be noted: rotenone 6.4 μg/ml; for ROS levels (DHE): wild type. Format: cell-based, Schizosaccharomyces pombe. How it is done: (§1) MitoTracker Green FM and dihydroethidium (DHE) staining of S. pombe cells. Mitochondrial localization was detected by staining S. pombe cells with MitoTracker Green FM (MTGreen) based on the protocol recommended by the manufacturer (Invitrogen). Briefly, S. pombe cells were cultured overnight in YES liquid medium at 30° C. to mid-log phase. Where indicated, rotenone stock solution was added to portions of each culture to a final concentration of 6.4 μg/ml. Equivalent volumes of DMSO were added to control cultures. Stock solutions of MTGreen (5 μM in DMSO) were prepared just prior to use. Staining was carried out by adding 10 μl of MTGreen stock solution to 1 ml of cell culture and incubating at 30° C. with shaking for 20 min. Stained cells were washed once with YES and resuspended in approximately 10 μl of YES prior to preparation of samples for microscopy. Stained cells were concentrated by centrifugation to a volume of approximately 10 μl. DHE staining was carried out as described by Huard et al., (2008) Cell Res. 18: 961-973, incorporated herein by reference in its entirety. Stained cells were visualized by epifluorescence microscopy using a Nikon 90i automated epifluorescence microscope system operated using Nikon NIS-Elements software. Images were captured using a CoolSNAP HQ2 monochrome CCD camera (Photometrics). RAW images were level-adjusted using the Adobe PhotoShop CS3 software application.
Rotenone induces generation of ROS in S. pombe cells. Since rotenone induces generation of ROS in mammalian cell cultures and oxidative stress damage in the brains of rats chronically treated with the toxin (Li et al., (2003) J. Biol. Chem. 278: 8516-8525; Greenamyre et al., (2003) Parkinsonism Relat. Disord. 9 (Suppl 2): S59-64), it was determined whether rotenone also induces generation of ROS in S. pombe cells. To do this, wild type S. pombe cells were treated with rotenone and periodically analyzed the treated cells by staining with dihydroethidium (DHE), which is oxidized to ethidium in the presence of ROS (Bindokas et al., (1996) J. Neurosci. 16: 1324-1336).
Pmk1, but not Spc1, is required for normal clearance of rotenone-induced ROS in S. pombe cells. To investigate further the effects of rotenone on spc1Δ and pmk1Δ cells, we treated the two strains and wild type S. pombe cells were treated with rotenone for 12 hrs and stained cells from treated and control cultures with DHE for detection of ROS by fluorescence microscopy.

The test system of assay [4] is S. pombe cells. As to conditions: 0.3 μg/ml rotenone, Heslot et al. 1970; cited from earlier work.
The test system of assay [5] is S. pombe cells. The assay is described as follows: MitoTracker Green FM staining of mitochondrial localization. The class given is cell-based, Schizosaccharomyces pombe. How it is done:
as §1
Rotenone induces disruption of mitochondrial localization in S. pombe cells. Similar to some mammalian cells, such as fibroblasts and nerve cells (Barsoum et al., (2006) EMBO J. 25: 3900-3911; Amchenkova et al., (1988) J. Cell. Biol. 107: 481-495), mitochondria in S. pombe are organized into tubular structures (Chiron et al., (2007) Methods Mol. Biol. 372: 91-105), as shown in FIG. 5A. […] Wild type S. pombe cells were cultured to mid-log phase in YES liquid medium were treated with rotenone (6.4 μg/ml) for 4 hr, stained with the fluorescent mitochondrial dye MitoTracker Green FM (MTGreen), and visualized by fluorescence microscopy. […]

Assay [6] relates to S. pombe cells. The assay is described as follows: Rotenone sensitivity assay (serial dilution spot growth on agar media). To be noted: for sensitivity of growth to rotenone: 16 μM rotenone; for sensitivity of growth to rotenone relative to wild type: rotenone 6.4 μg/ml; for inhibition of S. pombe growth: wild type. The class given is cell-based, Schizosaccharomyces pombe. The protocol:
Yeast strains, media, and genetic methods. The following S. pombe strains were used in this study: SP870 (h90 ade6-210 leu1-32 ura4-D18), SPSPC1 U90 (h90 ade6-210 leu1-32 ura4-D18 spc1::ura4), SPM1L (h90 leu1-32 ura4-D18 spm1::LEU2). S. pombe cultures were grown in either YES medium (0.5% yeast extract; 3% dextrose; and adenine, histidine, leucine, lysine and uracil, each at 250 mg/L) or Edinburgh minimal medium (EMM) containing required auxotrophic supplements (Alfa et al., (1993) Experiments with fission yeast: A laboratory course manual, Cold Spring Harbor Laboratory Press, Cold Spring Harbor, N.Y., incorporated herein by reference in its entirety). Agar media contained 2% Bacto agar (Difco).
Rotenone sensitivity assay. Rotenone stock solutions (10 mM in DMSO) were prepared just prior to carrying out each experiment and protected from light. Rotenone containing YES and EMM agar media were prepared by mixing rotenone stock solution with growth medium as required for the desired rotenone concentration (up to 6.4 μg/ml). For agar media, rotenone stock solution was added after autoclaving and cooling of the media to approximately 45° C. DMSO was added to control media at concentrations equivalent to that in media supplemented with rotenone. Plates were incubated at room temperature for 3-12 hr prior to use. S. pombe strains were cultured overnight in YES liquid medium at 30° C. to mid-log phase, concentrated to 5×10^6 cells/ml, and serially diluted (1:5). Three μl of each dilution was spotted onto rotenone containing plates and control plates and the plates were incubated at 30° C. for 2-4 days, as indicated in relevant figure legends.
Effects of rotenone on S. pombe cell growth in nutrient-enriched and nutrient-limited conditions. To investigate the effects of rotenone on S. pombe cell growth, we prepared complex rich (YES) and synthetic defined minimal (EMM) agar media containing concentrations of rotenone ranging from 0.2 to 6.4 μg/ml. […] Since rotenone has a relatively short half-life in aqueous solutions, growth media containing the toxin were prepared freshly prior to each experiment. Mid-log phase cultures of wild type S. pombe cells were serially diluted and tested for growth on YES and EMM plates containing rotenone and on control media lacking the toxin.
To determine whether spc1Δ and/or pmk1Δ mutants are hypersensitive to rotenone, log phase cultures of the two strains and wild type S. pombe cells were serially diluted and tested for growth on YES medium containing rotenone and on control medium lacking the toxin. […] The reduced sensitivity of spc1Δ cells to rotenone was most evident after incubation of the cultures for two days (FIG. 8A), with the difference after 3 days of growth being apparent from examination of colony sizes at the end of the cell dilution series on the respective plates (FIG. 8B).

On to `O=C1O[C@H]([C@@H](O)CO)C(O)=C1O` [ascorbic acid], for which the “reversal of rotenone-induced proliferation inhibition” value with S. pombe cells [1] (pka1Δ S. pombe cells) is “reversed”; with S. pombe cells [1] (wild-type S. pombe cells, nutrient stressed conditions), “reversed”.
Regarding `NCCO` [ethanolamine], the “suppression of rotenone-sensitive phenotype” value with S. pombe cells [1] (psd1-3Δ (phosphatidylethanolamine deficient) strain, YES with 16 μM rotenone, 1 mM ethanolamine) is “suppressed”.
Take `C=C(C)[C@H]1Cc2c(ccc3c2O[C@@H]2COc4cc(OC)c(OC)cc4[C@@H]2C3=O)O1` [rotenone]: the “defects in S. pombe cell morphology” value in the assay on S. pombe cells [2] was “does not induce obvious defects”. In addition, the “rotenone-induced ROS levels (DHE) relative to wild type” value in the assay with S. pombe cells [3] (pmk1Δ cells, 12 hrs) is “dramatically higher”. Also, in the assay with S. pombe cells [3] (spc1Δ cells, 12 hrs), the “rotenone-induced ROS levels (DHE)” value is given as “only a very slight increase”. The “ROS levels (DHE)” value is on record as “higher levels of ROS than control cells” in the assay with S. pombe cells [3] (6 hrs) and “Higher levels of ROS” in the assay with S. pombe cells [3] (12 hr). Further, the “effect on S. pombe cell growth” value with S. pombe cells [4] is “negligible effect”. For the same compound, the “cells with fragmentation of mitochondrial localization” value with S. pombe cells [5] (pmk1Δ cells, rotenone 6.4 μg/ml, 4 hr) is “approximately 70 % of cells”. Further, in the assay with S. pombe cells [5] (spc1Δ cells, rotenone 6.4 μg/ml, 4 hr), the “effect on mitochondrial localization” value is “marginal effect”. The “persistence of fragmented pattern of mitochondrial localization after initial exposure” value with S. pombe cells [5] (wild type, continued culturing in rotenone containing medium, data not shown) is recorded as “at least 24 hrs”. The “sensitivity of growth to rotenone” value with S. pombe cells [6] (aks1Δ mutant, complex YES medium) is reported as “strongly hypersensitive”; with S. pombe cells [6] (cgs1Δ mutant, complex YES medium) it was “does not significantly increase the sensitivity”; in the assay on S. pombe cells [6] (cgs1Δaks1Δ double mutant, complex YES medium) it was “allowing the yeast to proliferate in the presence of rotenone”; in the assay with S. pombe cells [6] (pka1Δ mutant, complex YES medium), “strongly hypersensitive”; in the assay on S. pombe cells [6] (psd1Δ psd2Δ psd3Δ triple deletion, complex medium), “increased sensitivity”; with S. pombe cells [6] (spc1Δ mutant, complex YES medium), “not hypersensitive”. The “sensitivity of growth to rotenone relative to wild type” value in the assay on S. pombe cells [6] (pmk1Δ mutant, YES medium, 3 days) is “profoundly more sensitive”; in the assay on S. pombe cells [6] (spc1Δ mutant, YES medium, 2-3 days), “slightly less sensitive”. Moreover, the “inhibition of S. pombe growth” value in the assay on S. pombe cells [6] (EMM minimal medium, 1.6 μg/ml rotenone, 4 days at 30° C.) is “slightly inhibited”; with S. pombe cells [6] (EMM minimal medium, 6.4 μg/ml rotenone, 4 days at 30° C.), “strongly inhibited”; with S. pombe cells [6] (YES medium, 6.4 μg/ml rotenone, 3 days at 30° C.), “modest inhibition”; in the assay on S. pombe cells [6] (YES medium, rotenone concentrations lower than 6.4 μg/ml (from 0.2 μg/ml)), “not on YES containing lower concentrations”.
